Consider 40 compounds from ChEMBL document CHEMBL4483862, “Open-source discovery of chemical leads for next-generation chemoprotective antimalarials” (2018).

For the assay, the system named is Plasmodium berghei. The assay can be described thus: Luciferase/luciferin-expressing antifolate-resistant parasites were used to infect a culture of HepG2 cells that were pre-incubated with compounds. Infected hepatocytes emit light due to the luciferase reaction. Assay results are presented as the percent inhibition of light emission compared to control. […]. The conditions noted are these: sporozoite; for IC90: read-out: LUCIFERASE INFECTION ASSAY - IC90. The assay is classed as functional.

The mark [1] stands for this setting: read-out: LUCIFERASE INFECTION ASSAY - IC50.

Consider `CC(=O)c1cccc(-c2cnc3ccc(-c4cccc(N)c4)nn23)c1`, for which the IC90 came to 3.85 µM. Also, the IC50 (HEPG2TOX_HILL_SLOPE 0.765, HEPG2TOX_R_SQUARED 0.894, PBLUC_HILL_SLOPE 1.06, PBLUC_R_SQUARED 0.553, read-out: LUCIFERASE INFECTION ASSAY - IC50) was determined as 0.481 µM.
Consider `CCOC(=O)COc1ccccc1/C=C(/C#N)S(=O)(=O)c1ccccc1`, for which the concentration for an effect of 90% (IC90) is greater than 8.89 µM. Moreover, under setting [1], the half-maximal inhibitory concentration (IC50) was greater than 8.89 µM.
With `Clc1ccc(Sc2ncnc3sccc23)cc1`, the 90% effect concentration (IC90) was greater than 11.8 µM. The IC50 under setting [1] was greater than 11.8 µM.
As for `O=c1[nH]nc(CSc2ccccn2)c2ccccc12`, the concentration for an effect of 90% (IC90) is greater than 12.3 µM. In addition, the half-inhibitory concentration (IC50) (PBLUC_HILL_SLOPE 1.43, PBLUC_R_SQUARED 0.267, read-out: LUCIFERASE INFECTION ASSAY - IC50) worked out at 10 µM.
For the compound `Cc1ncc(CO)c(/C=N/NC(=S)Nc2ccc(C(C)C)cc2)c1O`, the IC90 was greater than 10 µM. In addition, for the setting “HEPG2TOX_HILL_SLOPE 0.0695, HEPG2TOX_R_SQUARED 0.0364, read-out: LUCIFERASE INFECTION ASSAY - IC50”, the half-maximal inhibitory concentration (IC50) was greater than 10 µM.
Take `O=[N+]([O-])c1ccc(SCCOS(=O)(=O)c2cccc(C(F)(F)F)c2)c2nonc12`: the 90% effect concentration (IC90) is greater than 7.34 µM. In addition, the IC50 under setting [1] is greater than 7.34 µM.
In the case of `Cc1ccc2nc(NC(=O)c3ccccc3)c(C(=O)NC3CCCCC3)n2c1`, the IC90 stood at 3.2 µM. Also, the half-maximal inhibitory concentration (IC50) (FFLUC_HILL_SLOPE 0.276, FFLUC_R_SQUARED 0.15, HEPG2TOX_HILL_SLOPE 1.74, HEPG2TOX_R_SQUARED 0.886, PBLUC_HILL_SLOPE 12, PBLUC_R_SQUARED 0.694, read-out: LUCIFERASE INFECTION ASSAY - IC50) is 2.66 µM.
As to `CC(C)c1cccc(NS(=O)(=O)c2c[nH]c(C(=O)N3CCCC3)c2)c1`, the IC90 was greater than 10 µM. The half-inhibitory concentration (IC50) (HEPG2TOX_HILL_SLOPE 1.65, HEPG2TOX_R_SQUARED 0.259, read-out: LUCIFERASE INFECTION ASSAY - IC50) was greater than 10 µM.
For `CC1=CC(=O)N(c2ccc(F)c(Cl)c2)C1=O`, the 90% effect concentration (IC90) was greater than 13.8 µM. In addition, under “HEPG2TOX_HILL_SLOPE 6.55, HEPG2TOX_R_SQUARED 0.196, PBLUC_HILL_SLOPE 2.8, PBLUC_R_SQUARED 0.561, read-out: LUCIFERASE INFECTION ASSAY - IC50”, the IC50 came out at 8.94 µM.
Turning to `O=C1CCCN1c1ccc(CNc2ccccc2S(=O)(=O)C(F)(F)F)cc1`, the IC90 was greater than 10 µM. Moreover, the concentration for half-maximal inhibition (IC50) (HEPG2TOX_HILL_SLOPE 0.628, HEPG2TOX_R_SQUARED 0.884, read-out: LUCIFERASE INFECTION ASSAY - IC50) is greater than 10 µM.
As to `CN(Cc1ccsc1)c1nc(C(F)(F)F)nc2ccccc12`, the IC90 is greater than 10 µM. The IC50 under setting [1] was greater than 10 µM.
As to `CC(C)Cc1ccc(C(C)NC(=O)c2ccc(O)nc2)cc1` (centres undefined), the IC90 is greater than 10 µM. Moreover, the IC50 under setting [1] was greater than 10 µM.
`COc1ccc(Cl)cc1NC(=O)C(C)N1CCC(c2c[nH]c3ccccc23)CC1` (centres undefined): the IC90 amounted to 4.83 µM. Moreover, the IC50 (FFLUC_HILL_SLOPE 15.4, FFLUC_R_SQUARED 0.69, PBLUC_HILL_SLOPE 100, PBLUC_R_SQUARED 0.101, read-out: LUCIFERASE INFECTION ASSAY - IC50) was 4.73 µM.
As for `Cc1c(C(=O)N/N=C/c2c3ccccc3c(Cl)c3ccccc23)nc2ccccn12`, the concentration for an effect of 90% (IC90) was greater than 10 µM. Besides, under setting [1], the IC50 is greater than 10 µM.
For `Cc1ccc(N2C(=O)N(CC(=O)N3CCc4ccccc43)C(=O)C2C)cc1` (centres undefined), the concentration for an effect of 90% (IC90) was greater than 2 µM. The IC50 under setting [1] was greater than 2 µM.
Regarding `Cc1ccc(N2C(=N)C(=S)N(c3ccc(Cl)c(Cl)c3)C2=O)cc1`, the IC90 was greater than 9.06 µM. Moreover, under setting [1], the half-maximal inhibitory concentration (IC50) was greater than 9.06 µM.
With `CC(C)N(c1ccccc1)c1ccc(NC(=O)COC(=O)c2ccc(Cl)c(S(=O)(=O)N(Cc3ccccc3)c3ccc(Cl)cc3)c2)cc1`, the IC90 was greater than 10 µM. In addition, the IC50 (FFLUC_HILL_SLOPE 30.3, FFLUC_R_SQUARED 0.617, PBLUC_HILL_SLOPE 4.64, PBLUC_R_SQUARED 0.334, read-out: LUCIFERASE INFECTION ASSAY - IC50) worked out at 9.19 µM.
Turning to `O=C(c1ccc(S(=O)(=O)C(F)(F)F)cc1)N1CCN(Cc2csc(-c3ccccc3)n2)CC1`, the IC90 amounted to 4.21 µM. In addition, for the setting “HEPG2TOX_HILL_SLOPE 2.26, HEPG2TOX_R_SQUARED 0.817, PBLUC_HILL_SLOPE 12.1, PBLUC_R_SQUARED 0.456, read-out: LUCIFERASE INFECTION ASSAY - IC50”, the IC50 was determined as 3.51 µM.
With `COc1ccc(F)cc1-c1ccnc2n[nH]c(-c3ccc(Cl)cc3)c12`, the IC90 was greater than 10 µM. The 50% inhibitory concentration (IC50) (HEPG2TOX_HILL_SLOPE 2.34, HEPG2TOX_R_SQUARED 0.976, PBLUC_HILL_SLOPE 1.09, PBLUC_R_SQUARED 0.396, read-out: LUCIFERASE INFECTION ASSAY - IC50) was 1.84 µM.
Consider `O=C(CCn1cnc2ccccc2c1=O)Nc1ccc(Br)cn1`, for which the IC90 was 4.76 µM. Also, the IC50 (HEPG2TOX_HILL_SLOPE 3.2, HEPG2TOX_R_SQUARED 0.878, PBLUC_HILL_SLOPE 4.82, PBLUC_R_SQUARED 0.722, read-out: LUCIFERASE INFECTION ASSAY - IC50) came out at 3.02 µM.
For `C(=N\c1nc2ccccc2nc1N1CCOCC1)/N1CCN(C(c2ccccc2)c2ccccc2)CC1`, the 90% effect concentration (IC90) is greater than 10 µM. The 50% inhibitory concentration (IC50) under setting [1] is greater than 10 µM.
In the case of `O=c1nc(Nc2ccc(Cl)cc2)[nH]nc1Cc1ccc(Cl)cc1`, the IC90 turned out to be 5.05 µM. Besides, where the note is “PBLUC_HILL_SLOPE 2.36, PBLUC_R_SQUARED 0.336, read-out: LUCIFERASE INFECTION ASSAY - IC50”, the IC50 worked out at 1.99 µM.
Take `CC(C)c1cc(C(=O)OCCCn2c(=O)[nH]c3ccccc32)c2cnn(C(C)C)c2n1`: the IC90 was greater than 10 µM. Further, the IC50 under setting [1] was greater than 10 µM.
As for `CCO/C=N/Nc1nc(C(F)(F)F)nc2c1cnn2-c1ccccc1`, the IC90 was greater than 10 µM. Besides, the concentration for half-maximal inhibition (IC50) (FFLUC_HILL_SLOPE 12.8, FFLUC_R_SQUARED 0.468, PBLUC_HILL_SLOPE 1.59, PBLUC_R_SQUARED 0.442, read-out: LUCIFERASE INFECTION ASSAY - IC50) came out at 4.62 µM.
For the compound `Cc1ccc(Nc2nc(CSc3nc4ccccc4c(=O)n3CCCCCCC(C)C)cs2)cc1`, the concentration for an effect of 90% (IC90) is greater than 10 µM. For the same compound, the half-inhibitory concentration (IC50) (PBLUC_HILL_SLOPE 4.69, PBLUC_R_SQUARED 0.352, read-out: LUCIFERASE INFECTION ASSAY - IC50) was determined as 7.63 µM.
As to `CCCc1c(NC(=O)Nc2cc(C(F)(F)F)cc(C(F)(F)F)c2)cnn1-c1ccccc1`, the IC90 came out at 3.79 µM. Also, where the note is “FFLUC_HILL_SLOPE 11.3, FFLUC_R_SQUARED 0.657, HEPG2TOX_HILL_SLOPE 5.77, HEPG2TOX_R_SQUARED 0.944, PBLUC_HILL_SLOPE 9.21, PBLUC_R_SQUARED 0.384, read-out: LUCIFERASE INFECTION ASSAY - IC50”, the IC50 was 2.99 µM.
Turning to `N#Cc1cccc(/C=C/C(=O)c2ccc(S(=O)(=O)N3CCCC3)cc2)c1`, the IC90 was greater than 10 µM. Under setting [1], the IC50 was greater than 10 µM.
For `O=C(CSc1nnc(Nc2ccc(Oc3ccccc3)cc2)s1)c1cccs1`, the concentration for an effect of 90% (IC90) turned out to be 4.38 µM. Further, for the setting “FFLUC_HILL_SLOPE 2.69, FFLUC_R_SQUARED 0.808, PBLUC_HILL_SLOPE 3.49, PBLUC_R_SQUARED 0.557, read-out: LUCIFERASE INFECTION ASSAY - IC50”, the half-maximal inhibitory concentration (IC50) was found to be 2.33 µM.
On to `O=[N+]([O-])c1ccc(OCc2ccccc2)c(Cl)c1`, for which the 90% effect concentration (IC90) is greater than 12.5 µM. The half-inhibitory concentration (IC50) under setting [1] was greater than 12.5 µM.
With `CN(C)c1cccc(-c2cnc3cnc(-c4cccnc4)cn23)c1`, the IC90 is greater than 10.5 µM. Also, the half-maximal inhibitory concentration (IC50) (PBLUC_HILL_SLOPE 3.32, PBLUC_R_SQUARED 0.395, read-out: LUCIFERASE INFECTION ASSAY - IC50) was determined as 8.6 µM.
Take `CCOC(=O)c1c(-c2ccccc2)oc2ccc(NS(=O)(=O)c3ccc(CC)cc3)cc12`: the concentration for an effect of 90% (IC90) came to 9.53 µM. For the same compound, the IC50 (FFLUC_HILL_SLOPE 0.825, FFLUC_R_SQUARED 0.206, HEPG2TOX_HILL_SLOPE 3.18, HEPG2TOX_R_SQUARED 0.941, PBLUC_HILL_SLOPE 22.5, PBLUC_R_SQUARED 0.586, read-out: LUCIFERASE INFECTION ASSAY - IC50) came out at 8.65 µM.
In the case of `Cc1cc(-c2csc(Nc3ccccn3)n2)c(C)n1-c1nccs1`, the IC90 was greater than 10 µM. Also, the IC50 under setting [1] is greater than 10 µM.
For the compound `Cc1cc(C(=O)CSc2nc3ccccc3s2)c(C)n1CC1CCCO1` (centres undefined), the 90% effect concentration (IC90) is greater than 10 µM. Also, the IC50 under setting [1] is greater than 10 µM.
As for `Cc1cc(NC(=O)C(C)(C)C)sc1C(=O)Nc1ccccc1O`, the IC90 stood at 0.526 µM.
For the compound `CC(=O)Nc1ccc(Nc2cc3c(cn2)cc(-c2cccnc2)n3Cc2ccccc2)cc1`, the IC90 came out at 7.61 µM. Further, under “PBLUC_HILL_SLOPE 3.49, PBLUC_R_SQUARED 0.716, read-out: LUCIFERASE INFECTION ASSAY - IC50”, the IC50 turned out to be 4.06 µM.
`CCOC(=O)C1(C)CCN1C(=O)c1cc(OC)c(OC)c(OC)c1` (centres undefined): the 90% effect concentration (IC90) was greater than 9.78 µM. Further, the 50% inhibitory concentration (IC50) under setting [1] is greater than 9.78 µM.
For the compound `Brc1cnc2nc(-c3ccccc3)[nH]c2c1`, the IC90 is 7.03 µM. For the same compound, the IC50 (HEPG2TOX_HILL_SLOPE 8.76, HEPG2TOX_R_SQUARED 0.602, PBLUC_HILL_SLOPE 4.6, PBLUC_R_SQUARED 0.128, read-out: LUCIFERASE INFECTION ASSAY - IC50) was 4.36 µM.
Regarding `CN(C)c1nn(C(=S)Nc2cccc(C(F)(F)F)c2)cc1-c1ccccc1`, the IC90 was greater than 8.45 µM. Further, the IC50 under setting [1] was greater than 8.45 µM.
In the case of `NC(=O)c1cc(NC(=O)c2cccs2)ccc1N1CCCCC1`, the 90% effect concentration (IC90) is 4.83 µM. Further, the IC50 (HEPG2TOX_HILL_SLOPE 7.03, HEPG2TOX_R_SQUARED 0.757, PBLUC_HILL_SLOPE 7.92, PBLUC_R_SQUARED 0.39, read-out: LUCIFERASE INFECTION ASSAY - IC50) was determined as 3.66 µM.
As for `Cc1cc(CSc2ccccc2)ccc1NC(=O)Nc1ccccc1`, the IC90 is greater than 9.47 µM. Further, the half-inhibitory concentration (IC50) (PBLUC_HILL_SLOPE 1.29, PBLUC_R_SQUARED 0.521, read-out: LUCIFERASE INFECTION ASSAY - IC50) amounted to 2.22 µM.

What is called IC50 is the midpoint of a concentration-inhibition curve. Usually IC90 stands for the point of the concentration-response curve where the effect stands at 90%.
